SMILES strings stand for the structures.

What all share (assay type): ADME, organism-based
The test system of data set [1] is Homo sapiens. Briefly: Induction of voriconazole metabolism in po dosed […] infection patient assessed as increase in dihydroxyvoriconazole levels after 30 days. To be noted: in vivo, 720 h.
Data set [2] concerns Homo sapiens. Briefly: Induction of voriconazole metabolism in po dosed […] infection patient assessed as increase in voriconazole N-oxide metabolite levels after 30 days. The note with it: in vivo, 720 h.
The subject of data set [3] is Homo sapiens. Briefly: Effect on voriconazole metabolism in po dosed […] infection patient assessed as decrease in voriconazole exposure levels after 30 days. Details: scale not given: the % may be the effect or the level left. To be noted: in vivo, 720 h.
Data set [4] deals with Homo sapiens. Briefly: Induction of voriconazole metabolism in po dosed […] infection patient assessed as increase in hydroxyvoriconazole levels after 30 days. The note with it: in vivo, 720 h.
Data set [5] in a line: AUC (0 to infinity) in […] infection patient at 400 mg, po administered daily after 36 days of drug therapy and 30 days of rifampin coadministration. Details: dose 400 mg, route oral, time infinity. The note with it: human, plasma.
The nature of data set [6]: AUC (0 to infinity) in […] infection patient at 400 mg, po administered daily. Details: dose 400 mg, route oral, time infinity. The note with it: human, plasma.
A short description of data set [7]: Cmax in […] infection patient at 400 mg, po administered daily after 36 days of drug therapy and 30 days of rifampin coadministration. Details: dose 400 mg, route oral. The note with it: human, in vivo.
The nature of data set [8]: Cmax in […] infection patient at 400 mg, po administered daily. Also noted: dose 400 mg, route oral. The note with it: human, in vivo.

With `CO[C@H]1/C=C/O[C@@]2(C)Oc3c(C)c(O)c4c(O)c(c(/C=N/N5CCN(C)CC5)c(O)c4c3C2=O)NC(=O)/C(C)=C\C=C\[C@H](C)[C@H](O)[C@@H](C)[C@@H](O)[C@@H](C)[C@H](OC(C)=O)[C@@H]1C` [RIFAMPIN], the “fold change (FC)” value with Homo sapiens [1] was 422; in the data set with Homo sapiens [2], 45; in the data set with Homo sapiens [4], 178. The Activity in the data set with Homo sapiens [3] is 99%.
Usually AUC(0-inf) stands for the area under the concentration-time curve extrapolated to infinity. What is called Cmax is the peak of the concentration-time curve. With `C[C@@H](c1ncncc1F)[C@](O)(Cn1cncn1)c1ccc(F)cc1F` [VORICONAZOLE], the AUC(0-inf) in data set [5] was 145 ng·h/mL; in data set [6] it was 27400 ng·h/mL. The Cmax came to 38 ng/mL in data set [7] and 3920 ng/mL in data set [8].

For the origin of these results see ChEMBL document CHEMBL1154399, “Induction of voriconazole metabolism by rifampin in a patient with acute myeloid leukemia: importance of interdisciplinary communication to prevent treatment errors with complex medications” (Antimicrob Agents Chemother, 2007).
